Experimental data as given in article PMC7772889, “Integrating biokinetics and in vitro studies to evaluate developmental neurotoxicity induced by chlorpyrifos in human iPSC-derived neural stem cells undergoing differentiation towards neuronal and glial cells” (Reproductive Toxicology (Elmsford, N.y.), 2020).

Key:
[1] = Non-specific binding to the matrix (Matrigel, without cells); assay type: in vitro ADME; conditions: no cells
Method: Due to the presence of Matrigel (Reduced Growth Factors), pre-coated well plates were treated in parallel, with the same experimental conditions of the main experiment, but in the absence of cells. In order to determine if and how CPF was sequestered by proteins in Matrigel, the content of the pre-coated wells was transferred into amber glass vials with screw caps and stored at −80 °C until HPLC analysis. For all these analyses, 4 biological replicates were carried out.

[2] = cited from earlier work
[3] = Cross-contamination among wells; assay type: physicochemical
Method: In the adjacent wells to those containing CPF, at the applied concentrations, a corresponding amount of DMSO (vehicle control) was added. At the end of the experiment, the content of these control wells was stored at −80 °C until HPLC analysis. The CPF content in control wells served as an indication of possible contamination across wells, due to CPF evaporation.

neuron-only cultures = conditions: cited from earlier work
[4] = test system: hiPSC-derived NSCs undergoing differentiation; assay: Proportion of neurons (β-III-Tubulin+) and astrocytes (GFAP+) by immunocytochemistry and HCI; assay type: cell-based, human; conditions: 14 days
Method: After 14 days of treatment with CPF at the nominal concentrations of 18.45, 21.21, 24.39, 28.05, 32.26, and 37.10 μM (37.10 μM equal to IC20), obtained considering a 1-to-1.15 dilution factor, cells were fixed with 4 % formaldehyde for 10 min and washed three times in PBS 1 × . After 15 min permeabilization with PBS 1X containing 0.1 % Triton-X-100 and 3,5 % bovine serum albumin (BSA), cells were further incubated with 3,5 % BSA and 1X PBS (blocking solution) for 15 min, to prevent nonspecific binding of antibodies, and then incubated at 4 °C overnight with primary antibodies in blocking solution. […] Neurite outgrowth and BDNF protein levels were assessed by staining the cells with an antibody specific for β-III-tubulin (mouse, 1:500, ThermoFisher), and one for BDNF (rabbit, 1:70, ThermoFisher). […] Mean fluorescence intensity and the relative percentages of immunocytochemically-defined cell types were quantified using the ArrayScan™ XTI High Content Platform (Cellomics) (ThermoFisher) and the ArrayScan algorithm 'Neuronal Profiling V4.1', as previously described. […] Other masks were applied to identify the neurites, their branch points, and the fluorescence intensity levels of SYP and PSD95 puncta, or BDNF protein. […]

Q: With CCOP(=S)(OCC)Oc1nc(Cl)c(Cl)cc1Cl [CPF, Chlorpyrifos] as the compound, how does the Bound-to-matrigel fraction ([1]; first day of treatment) read?
A: 1.7−4.2%

Q: What about the Bound-to-matrigel fraction ([1]; last day of treatment) of the same compound?
A: 5.8−6.5%

Q: What about the vapour pressure ([2]; at 25 °C) of the same compound?
A: 2.02 × 10^−5 mm Hg

Q: What about the “log Kow, octanol/water partition coefficient” value [2] of the same compound?
A: 4.96

Q: And the Cross-contamination among wells ([3]; first day of treatment)?
A: Not detectable

Q: And the Cross-contamination among wells ([3]; last day of treatment)?
A: Not detectable

Q: What about the “concentration from which inhibition of neurite length, neurite number and branch points was observed” value (neuron-only cultures) of the same compound?
A: 10 µM

Q: And the “increase of neuronal cell percentage (β-III-Tubulin+)” value ([4]; all tested concentrations)?
A: 10–15%

Q: What about the “increase of GFAP+ cell percentage vs solvent control” value ([4]; concentration dependent) of the same compound?
A: 2- to 2.8 fold
